Measured values: patent US20180028477A1, “TREATMENT OF CARDIAC REMODELING AND OTHER HEART CONDITIONS” (C & C BIOPHARMA, LLC, priority 2013, published 2018)
Entries after “also recorded” stand apart in the source; their conditions may differ.

Assays:
a variety of cells = experiment: Toxicity in the culture of a variety of cells; type: cell-based
[1] = Tolerability in mice, daily dosing for four weeks; type: in vivo; conditions: 100 mg/Kg daily for four weeks
[2] = tested on: ventricular fibrosis after TAC in mice; experiment: TAC 21 days: ventricular fibrosis, Masson's Trichrome (Example 5); type: in vivo; conditions: 21 days after TAC
Excerpt: Using cardiac tissue samples obtained from the same mice treated under the experimental conditions described in Example 4, Masson's Trichrome was used to stain fibrotic tissue (FIG. 6A). Fibrotic area was quantified and expressed relative to the total tissue area (FIG. 6B). Ventricular fibrosis was prominent in mice 21 days after TAC, but not in sham-operated mice (FIGS. 6A and 6B).

[3] = tested on: cardiac function after TAC in mice; experiment: Echocardiography of cardiac function 21 days post TAC (Example 8); type: in vivo
Description: Masson's Trichrome was used to visualize cardiac four-chamber anatomy. Paraffin embedded sections were used for staining (FIG. 5B). Representative wheat germ agglutinin (WGA)-stained sections of myocardium from the mice were prepared. For echocardiography (FIG. 5C), mice were placed under anesthesia with 40 mg/kg ketamine and 5 mg/kg xylocaine and secured in a supine position. Mice were evaluated using […] transducer on a Visual Sonics 770 High Resolution Imaging System. B-mode in the short and long axis view of the ventricle was used to evaluate wall motion defects of ventricle and M-mode in long axis view used for the interventricular septal thickness, posterior wall thickness and the left ventricular dimensions in systole and diastole.
Echocardiographic studies were performed on the mice to examine systolic function under the experimental conditions described in Example 4. […] As expected, TAC induced a 37% fall in ejection fraction at 21 days (sham, 82.4±1.8% vs. TAC, 51.7±5.1%) (FIG. 8A). […] The mice maintained a near-normal ejection fraction of 75.4% at the highest dose of 8MI (FIG. 8A). […] LV end diastolic diameter (LViDd) (FIG. 8D), LV end-systolic diameter (LViDs) (FIG. 8E), LV systolic volume (LV Vs) (FIG. 8F), and LV diastolic volume (LV Vd) (FIG. 8G) were increased by TAC and diminished in the presence of 8MI. […] Heart rate was unaffected in all mice (FIG. 8H).

GATA4 = GATA4 acetylation in myocardial lysates, immunoprecipitation/Western (Example 9); type: in vivo; conditions: TAC-operated mice, same conditions
Description: Acetyl-MEF2 and acetyl-GATA4 were determined as described in Example 9 in myocardial lysates of TAC- or sham-operated mice treated with the indicated doses of 8MI, or its vehicle (0), as indicated. […] MEF2 acetylation is increased by TAC and reduced by 8MI. Myocardial lysates were immunoprecipitated with either anti-pan MEF2 or GATA4 antibodies, and probed with antibodies against MEF2, GATA4 or acetyl-lysine (control). The quantified data shown in FIG. 9 is from 3 mice per group and normalized to total acetyl-lysine (western blots are not shown).
MEF2 acetylation was determined in myocardial tissue from sham- and TAC-operated mice in the presence of vehicle or 8MI, under the experimental conditions described in Example 4. Protein samples were collected in RIPA (Sigma). […] of protein samples were incubated with 5 μg of acetyl lysine or GATA4 antibodies (Upstate, Charlottesville, Va.) or MEF2 antibody (Santa Cruz Biotechnology, Santa Cruz, Calif.) (5 μg). The immune-complexes were captured using TrueBlot sepharose beads and subjected to Western analysis. The immune complexes were resolved on SDS-PAGE and transferred to nitrocellulose membranes. Membranes were blocked with 5% milk in 0.5% TBS-T for 1 hour at room temperature followed by incubation in primary antibody at appropriate dilutions overnight. […]

[4] = tested on: myocyte apoptosis during TAC; experiment: Myocyte apoptosis in myocardial tissue after TAC, TUNEL assay (Example 10); type: in vivo, mice
Excerpt: In parallel samples from the experiment described in Example 4, apoptosis was quantitated in myocardial tissue from sham- and TAC-operated mice in the presence of vehicle or 8MI. Apoptosis was detected following recommended protocol for the commercially available terminal deoxynucleotidyl transferase-mediated dUTP nick-end labeling (TUNEL) assay kit (Cardiotacs, Trevigne, Gaithersburg, Md.).

[5] = Metabolic stability in human liver microsomes fortified with NADPH (Example 11); type: in vitro ADME; parameters: CLint scaled: dose or concentration left out as unconfirmed
Excerpt: Drug clearance is a measure of the ability of the body or an organ to eliminate a drug from the blood circulation. Systemic clearance is a measure of the ability of the entire body to eliminate the drug. Organ clearance is a measure of the ability of a particular organ (hepatic or renal) to eliminate the drug. For hepatic clearance, the liver is the major organ for drug metabolism and the key organ for drug clearance. Human liver microsomes (HLM) fortified with NADPH is a standard way to measure in vitro metabolism and predict in vivo clearance. CLint (intrinsic clearance) is the link between in vitro and in vivo studies, which can be estimated based on the mono-exponential decay model: Ct=C X e^−kt.
Human liver microsomes fortified with NADPH is a standard approach to evaluate metabolic stability mediated by CYP (cytochrome P450) enzymes in vitro. The reaction mixture (0.4 mL) contained 0.5 mg/mL human liver microsomes, 100 mM phosphate buffer (pH 7.4) and […] of test compounds. The mixture was first warmed up for 5 min in a 37° C. shaking water bath and then NADPH at a final concentration of 1 mM was added to initiate the reaction. Aliquots […] were taken at specified time points and mixed with ice-cold methanol (containing internal standard) to stop the reaction. The mixture was vortexed briefly and centrifuged for protein precipitation. An aliquot of […] supernatant was subject to LC-MS/MS analysis. The percentage of compound disappearance was used to calculate the rate of metabolism.

[6] = 21 days post TAC, depressed by TAC
[7] = 21 days post TAC, increased by TAC

**Q.** Which results are given for `Nc1ccccc1NC(=O)CCCCCC(=O)Nc1cccc(Br)c1` [8MI]?
**A.** concentration up to which no apparent toxicity was seen (a variety of cells): up to 20 μM; signs of kidney or liver damage or other adverse effects [1]: no sign of kidney or liver damage or other adverse effects; also recorded: without any signs of kidney or liver disease or other adverse effects; fibrotic response (fibrotic area relative to total tissue area) ([2]; dose range): significantly reduced in a dose-dependent manner; also recorded: reduces fibrosis; fibrotic response (fibrotic area relative to total tissue area) at the highest dosage ([2]; highest dosage): eliminated; systolic function / cardiac function under sustained pressure overload ([3]; 21 days post TAC, 5, 20 and 40 mg/kg, dose-dependent): preserved systolic function; also recorded: preservation of cardiac function; ejection fraction ([3]; 21 days post TAC, highest dose of 8MI (sham 82.4±1.8%, TAC 51.7±5.1%)): 75.4%; fractional shortening (FS) [3, 6]: similarly restored; stroke volume [3, 6]: similarly restored; LV end diastolic diameter (LViDd) [3, 7]: diminished; LV end-systolic diameter (LViDs) [3, 7]: diminished; LV systolic volume (LV Vs) [3, 7]: diminished; heart rate ([3]; all mice, 21 days): unaffected; cardiac function in sham-operated mice ([3]; sham-operated mice treated with 8MI): normal cardiac function; total and Ac-GATA4 levels (GATA4): no significant change; apoptosis in TAC-operated mice at the highest dose ([4]; 40 mg/kg): reduced to approximately the same level of apoptosis observed for the sham-operated mice; apoptosis in TAC-operated mice ([4]; dose range): reduced in TAC-operated mice by 8MI in a dose-dependent manner; also recorded: prevented myocyte apoptosis during TAC in a dose dependent manner; K (rate constant) ([5]; 0.5 mg/mL human liver microsomes, 1 mM NADPH, pH 7.4, 37° C.): 0.0046 min⁻¹; Clhp (hepatic clearance) ([5]; human liver microsomes): 3.85 mL/min/kg; CLint scaled ([5]; pH 7.4, human liver microsomes, from mono-exponential decay model, read-out: Clint (intrinsic clearance)): 4.73 mL/min/kg
